Tests used:
Test in all cases: combination Emax (second highest fraction inhibited in the dose matrix, 72 h); higher = more inhibition; extreme values may be limits of the assay
[1] = system: PANC-02-03 (Pancreatic Carcinoma)
Summary of the method: (§1)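 Bliss excess equals the observed combination effect minus the expected value EA + EB − EA·EB, where EA and EB are the effects of each agent alone. Combination Emax is the second-highest inhibition within the matrix. Inhibition was scaled from CellTiter-Glo 2.0 luminescence, with 0 set by vehicle wells and 1 by blank wells, after 72 hours of two-drug dosing of cells plated in 1536-well plates.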

HuO-3N1 (Osteosarcoma) = system: HuO-3N1 (Osteosarcoma)
Summary of the method: as §1

[2] = system: HTC-C3 (Thyroid Gland Carcinoma)
Summary of the method: as §1

[3] = system: OCI-AML5 (Acute Myeloid Leukemia)
Summary of the method: as §1

[4] = system: PC-14 (Lung Adenocarcinoma)
Summary of the method: as §1

[5] = system: LOUCY (T-Lymphoblastic Leukemia)
Summary of the method: as §1

[6] = system: KYSE-70 (Esophageal Squamous Cell Carcinoma)
Summary of the method: as §1

[7] = system: RL95-2 (Endometrial Carcinoma)
Summary of the method: as §1

[8] = system: RMG-I (Ovarian Carcinoma)
Summary of the method: as §1

[9] = system: OVTOKO (Ovarian Carcinoma)
Summary of the method: as §1

[10] = system: JHH-1 (Hepatocellular Carcinoma)
Summary of the method: as §1

[11] = system: NCI-H810 (Non-Small Cell Lung Carcinoma)
Summary of the method: as §1

786-0 (Kidney Carcinoma) = system: 786-0 (Kidney Carcinoma)
Summary of the method: as §1

[12] = system: RERF-LC-KJ (Lung Adenocarcinoma)
Summary of the method: as §1

[13] = system: AsPC-1 (Pancreatic Carcinoma)
Summary of the method: as §1

[14] = system: OV-90 (Ovarian Carcinoma)
Summary of the method: as §1

[15] = system: NKM-1 (Acute Myeloid Leukemia)
Summary of the method: as §1

[16] = system: SK-MM-2 (Plasma Cell Myeloma)
Summary of the method: as §1

[17] = system: NCI-H196 (Small Cell Lung Carcinoma)
Summary of the method: as §1

Compound | combination Emax [1] | combination Emax (HuO-3N1 (Osteosarcoma)) | combination Emax [2] | combination Emax [3] | combination Emax [4] | combination Emax [5] | combination Emax [6] | combination Emax [7] | combination Emax [8] | combination Emax [9] | combination Emax [10] | combination Emax [11] | combination Emax (786-0 (Kidney Carcinoma)) | combination Emax [12] | combination Emax [13] | combination Emax [14] | combination Emax [15] | combination Emax [16] | combination Emax [17]
NC1(C(=O)N[C@@H](CCO)c2ccc(Cl)cc2)CCN(c2ncnc3[nH]ccc23)CC1 [Capivasertib] + CCN(CCO)CCCOc1ccc2c(Nc3cc(CC(=O)Nc4cccc(F)c4)[nH]n3)ncnc2c1 [AZD2811] (first compound max 10 µM, 7x7, partner max 1 µM) | 0.24 | 0.494 | 0.405 | 0.974 | 0.505 | 0.918 | 0.272 | 1 | 0.315 | 0.568 | 0.232 | 0.534 | 0.553 | 0.503 | 0.233 | 0.364 | 0.779 | 0.239 | 0.358
NC1(C(=O)N[C@@H](CCO)c2ccc(Cl)cc2)CCN(c2ncnc3[nH]ccc23)CC1 [Capivasertib] + COc1nnc2ccc(N3CCC(c4ccc(OCCN5CCN(C)C(=O)[C@H]5C)cc4)CC3)nn12 [AZD5153] (first compound max 10 µM, 7x7, partner max 1 µM) | 0.602 | 0.481 | 0.791 | 0.769 | 0.638 | 0.998 | 0.358 | 0.9 | 0.456 | 0.604 | 0.378 | 0.582 | 0.733 | 0.877 | 0.268 | 0.596 | 1 | 0.887 | 0.326
NC1(C(=O)N[C@@H](CCO)c2ccc(Cl)cc2)CCN(c2ncnc3[nH]ccc23)CC1 [Capivasertib] + C[C@@H]1COCCN1C2=NC(=NC(=C2)C3(CC3)[S@](=N)(=O)C)C4=C5C=CNC5=NC=C4 [AZD6738] (first compound max 10 µM, 7x7, partner max 10 µM) | 0.474 | 0.592 | 0.823 | 0.917 | 0.854 | 0.979 | 0.377 | 0.886 | 0.385 | 0.628 | 0.409 | 0.648 | 0.809 | 0.478 | 0.329 | 0.614 | 0.933 | 0.302 | 0.408
NC1(C(=O)N[C@@H](CCO)c2ccc(Cl)cc2)CCN(c2ncnc3[nH]ccc23)CC1 [Capivasertib] + Cn1cnc2c(F)c(Nc3ccc(Br)cc3Cl)c(C(=O)NOCCO)cc21 [Selumetinib] (first compound max 10 µM, 7x7, partner max 10 µM) | 0.572 | 0.439 | 0.772 | 0.951 | 0.834 | 0.66 | 0.374 | 1 | 0.392 | 0.565 | 0.295 | 0.139 | 0.696 | 0.436 | 0.491 | 0.627 | 0.965 | 0.36 | 0.281
Cc1nc(Nc2ncc(C(=O)Nc3c(C)cccc3Cl)s2)cc(N2CCN(CCO)CC2)n1 [Dasatinib] + CC(=O)Nc1cccc(-n2c(=O)n(C3CC3)c(=O)c3c(Nc4ccc(I)cc4F)n(C)c(=O)c(C)c32)c1 [Trametinib] (first compound max 2 µM, 7x7, partner max 1 µM) | 0.836 | 0.493 | 0.906 | 0.81 | 1 | 0.344 | 0.278 | 0.405 | 0.505 | 0.748 | 0.806 | 0.103 | 0.642 | 0.436 | 0.612 | 0.752 | 0.899 | 0.123 | 0.103
COc1cc2ncnc(Nc3ccc(F)c(Cl)c3)c2cc1OCCCN1CCOCC1 [Gefitinib] + CC(C)n1c(=O)n(C)c2cnc3cc(F)c(-c4ccc(OCCCN5CCCCC5)nc4)cc3c21 [AZD1390] (first compound max 10 µM, 7x7, partner max 0.3 µM) | 0.266 | 0.0711 | 0.0317 | 0.145 | 0.752 | 0.296 | 0.098 | 0.0606 | 0.413 | 0.428 | 0.247 | 0.158 | 0.247 | 0.351 | 0.13 | 0.12 | 0.167 | 0.151 | 0.0162
CS(=O)(=O)CCNCc1ccc(-c2ccc3ncnc(Nc4ccc(OCc5cccc(F)c5)c(Cl)c4)c3c2)o1 [Lapatinib] + C[C@@H](Oc1cc(-c2cnn(C3CCNCC3)c2)cnc1N)c1c(Cl)ccc(F)c1Cl [Crizotinib] (first compound max 10 µM, 7x7, partner max 10 µM) | 0.735 | 0.876 | 0.956 | 0.988 | 1 | 0.822 | 0.585 | 0.934 | 0.851 | 0.902 | 0.952 | 0.412 | 0.992 | 0.81 | 0.345 | 0.578 | 0.965 | 0.43 | 0.19
CC(=O)c1c(C)c2cnc(Nc3ccc(N4CCNCC4)cn3)nc2n(C2CCCC2)c1=O [Palbociclib] + CC1(C)CCC(CN2CCN(c3ccc(C(=O)NS(=O)(=O)c4ccc(NCC5CCOCC5)c([N+](=O)[O-])c4)c(Oc4cnc5[nH]ccc5c4)c3)CC2)=C(c2ccc(Cl)cc2)C1 [Venetoclax] (first compound max 10 µM, 7x7, partner max 1 µM) | 0.148 | 0.146 | 0.189 | 0.837 | 0.204 | 1 | 0.11 | 0.226 | 0.277 | 0.336 | 0.138 | 0.0599 | 0.411 | 0.117 | 0.104 | 0.0192 | 0.946 | 1 | 0.0487
CC(=O)c1c(C)c2cnc(Nc3ccc(N4CCNCC4)cn3)nc2n(C2CCCC2)c1=O [Palbociclib] + Cc1c2c(nn1C)CSCc1cc(n(C)n1)CSc1cc(c3ccccc3c1)OCCCc1c(C(=O)O)n(C)c3c-2c(Cl)ccc13 [AZD5991] (first compound max 10 µM, 7x7, partner max 1 µM) | 0.182 | 0.508 | 0.248 | 0.517 | 0.279 | 0.553 | 0.157 | 0.939 | 0.306 | 0.48 | 0.289 | 0.224 | 0.489 | 0.288 | 0.199 | 0.158 | 0.994 | 0.259 | 0.126
CC(=O)c1c(C)c2cnc(Nc3ccc(N4CCNCC4)cn3)nc2n(C2CCCC2)c1=O [Palbociclib] + Cn1cnc2c(F)c(Nc3ccc(Br)cc3Cl)c(C(=O)NOCCO)cc21 [Selumetinib] (first compound max 10 µM, 7x7, partner max 10 µM) | 0.475 | 0.154 | 0.728 | 0.833 | 0.434 | 0.278 | 0.182 | 0.561 | 0.353 | 0.259 | 0.201 | 0.0848 | 0.357 | 0.197 | 0.386 | 0.636 | 0.944 | 0.138 | 0.0806
C[C@@H](c1ccc2nccn2c1)n1nnc2ncc(-c3cnn(C)c3)nc21 [Savolitinib] + CC1(C)CCC(CN2CCN(c3ccc(C(=O)NS(=O)(=O)c4ccc(NCC5CCOCC5)c([N+](=O)[O-])c4)c(Oc4cnc5[nH]ccc5c4)c3)CC2)=C(c2ccc(Cl)cc2)C1 [Venetoclax] (first compound max 1 µM, 7x7, partner max 1 µM) | 0.157 | 0.181 | 0.127 | 0.883 | 0.177 | 0.976 | 0.095 | 0.085 | 0.208 | 0.199 | 0.114 | 0.194 | 0.159 | 0.15 | 0.107 | 0.133 | 0.545 | 1 | 0.128
C[C@@H](c1ccc2nccn2c1)n1nnc2ncc(-c3cnn(C)c3)nc21 [Savolitinib] + Cc1c2c(nn1C)CSCc1cc(n(C)n1)CSc1cc(c3ccccc3c1)OCCCc1c(C(=O)O)n(C)c3c-2c(Cl)ccc13 [AZD5991] (first compound max 1 µM, 7x7, partner max 1 µM) | 0.13 | 0.35 | 0.182 | 0.137 | 0.148 | 0.46 | 0.107 | 0.577 | 0.216 | 0.199 | 0.208 | 0.255 | 0.183 | 0.301 | 0.184 | 0.185 | 0.976 | 0.131 | 0.173
Cn1cnc2c(F)c(Nc3ccc(Br)cc3Cl)c(C(=O)NOCCO)cc21 [Selumetinib] + C=CCn1c(=O)c2cnc(Nc3ccc(N4CCN(C)CC4)cc3)nc2n1-c1cccc(C(C)(C)O)n1 [AZD1775] (first compound max 10 µM, partner max 1 µM) | 0.572 | 0.259 | 0.691 | 0.944 | 0.928 | 0.977 | 0.328 | 0.587 | 0.359 | 0.452 | 0.599 | 0.542 | 0.572 | 0.401 | 0.437 | 0.628 | 0.875 | 0.236 | 0.347

— the supplement of paper PMC11061612
